Laboratory results as given in ChEMBL document CHEMBL3588804, “Structure-activity relationship studies on acremomannolipin A, the potent calcium signal modulator with a novel glycolipid structure 3: role of the length of alditol side chain” (Bioorg Med Chem, 2015).
The source made the active and inactive calls. No cut-off for these calls is given here.

system: Schizosaccharomyces pombe; assay: Suppression of Cl- sensitive growth defect in calcineurin gene deleted Schizosaccharomyces pombe (h+ leu1 ura4-D18 ppb1::ura4+) at 100 uM after 3 days by filter paper disk assay in presence of 0.11 M MgCl2 in YPD medium

| Structure (SMILES) | Activity |
| --- | --- |
| CCCCCCCC(=O)O[C@@H]1[C@H](OC[C@@H](O)[C@@H](O)[C@H](O)[C@H](O)CO)O[C@H](COC(=O)CCCCC)[C@@H](OC(=O)CCCCC)[C@@H]1OC(=O)CCCCC | Active |
| CCCCCCCC(=O)O[C@@H]1[C@H](OC[C@@H](O)[C@@H](O)CO)O[C@H](COC(=O)CCCCC)[C@@H](OC(=O)CCCCC)[C@@H]1OC(=O)CCCCC | Active |
| CCCCCCCC(=O)O[C@@H]1[C@H](OC[C@@H](O)[C@@H](O)[C@H](O)[C@H](O)[C@@H](O)CO)O[C@H](COC(=O)CCCCC)[C@@H](OC(=O)CCCCC)[C@@H]1OC(=O)CCCCC | Active |
| CCCCCCCC(=O)O[C@@H]1[C@H](OC[C@@H](O)CO)O[C@H](COC(=O)CCCCC)[C@@H](OC(=O)CCCCC)[C@@H]1OC(=O)CCCCC | inactive |
| CCCCCCCC(=O)O[C@@H]1[C@H](OCCO)O[C@H](COC(=O)CCCCC)[C@@H](OC(=O)CCCCC)[C@@H]1OC(=O)CCCCC | inactive |
| CCCCCCCC(=O)O[C@@H]1[C@H](OC[C@@H](O)[C@@H](O)[C@H](O)CO)O[C@H](COC(=O)CCCCC)[C@@H](OC(=O)CCCCC)[C@@H]1OC(=O)CCCCC | Active |
